The values below come from patent US7534455B2, “Herbal composition PHY906 and its use in chemotherapy” (Yale University, priority 2000, dated 2009).

The nature of series [1]: Host toxicity (body weight loss, mortality, blood cell counts) in chemotherapy treated BDF-1 mice bearing Colon 38 tumor. The series is classed as in vivo. Here is the method:
(§1) Anti-Tumor Studies: Murine Colon 38 (1-2×10^6 cells in 0.1 ml PBS) or human HepG2 cells (1-2×10^6 cells in 0.1 ml PBS) were transplanted subcutaneously into BDF1 or NCr athymic nude mice, respectively. The length and width of the tumors were measured daily with sliding calipers. The tumor weight was estimated according to the following formula (Pizzorno G, Wiegand R, Lentz S, et al., Cancer Res. 52:1660-1665 (1992)): Tumor weight (mg)=length (mm)×width (mm)^2/2.
(§2) After 10 to 14 days, mice (five animals/group) with tumor weights ranging from 150-200 mg were selected for drug studies (Guo X, Lerner-Tung M, Chen H X, et al., Biochem Pharmacol 49:1111-1116 (1995)). Mice were sacrificed when the tumor size reached 10% of body weight. PHY906 was administered orally either alone or with anti-cancer chemotherapeutic agents. The effect of PHY906 on antitumor efficacy and the reduction of toxicity by the agents were evaluated. CPT-11 was given intraperitoneally (i.p.) 30 min after PHY906 administration with the selected dose. The regimen of FU/LV combination therapy was given as follows:
The first day of treatment was defined as day 0. PHY906 was given orally twice a day (10 am and 3 pm) for either 4 or 8 days beginning on day 0. For the control group, mice were administrated a vehicle, either PBS for i.p. or H2O for p.o. (oral administration). Animals were monitored for mortality, weight loss, and tumor size daily.
Blood Cell Counts: Blood (20 μl) was taken from mice on days 0, 3, 6, 9 and 12 with micro-capillary tubes. Blood was then be diluted to 200 μl with normal saline (0.85% Sodium Chloride). WBC, RBC and platelets were counted by a BAKER SYSTEM 9100™ […] (Biochem ImmunoSystems Inc., Allentown, Pa. 18103-9562).
PHY906 was evaluated as a modulator of CPT-11 therapy for toxic side effects in mice inoculated with Colon 38 tumor cells. Based on the previous findings (Example 2), a single bolus dose of 400 mg/kg CPT-11 was selected to study the effect of PHY906 on weight-loss associated with toxicity of CPT-11. To evaluate whether PHY906 impairs the antitumor efficacy of CPT-11, mice were implanted subcutaneously with Colon 38 tumor cells. Ten to 14 days after inoculation, mice were treated with CPT-11 (400 mg/kg, i.p.) in the absence or presence of PHY906, which was given orally twice a day at varying doses (125 mg/kg, 250 mg/kg, and 500 mg/kg). PHY906 treatment was continued at the dose indicated for 8 consecutive days.
Mice were divided into four groups with different treatment regimens: Group (A) treatment with vehicle; Group (B) treatment with a single dose of 400 mg/kg CPT-11 by i.p. injection; Group (C) treatment with PHY906 (500 mg/kg/b.i.d.) alone; or Group (D) treatment with a single dose of 400 mg/kg CPT-11 plus 500 mg/kg/b.i.d. PHY906 for 4 or 8 days. The sequence of each treatment regimen appears in Materials and Methods. As depicted in Table 9, 35 of 35 tumor-bearing mice (100%) from Group A and 15 of 15 mice (100%) from Group C survived treatment with either vehicle or PHY906 alone for 4 or 8 days, indicating no or very low toxicity for PHY906.

A further series deals with Colon 38 tumor. In words: Tumor growth in BDF-1 mice bearing Colon 38 tumor. To be noted: CPT-11 treated mice; formulation 1 g/kg, bid, 8 days. It counts as in vivo, mouse. Here is the method: as §1, §2
(A) treatment with FU/LV alone: first dose of LV (50 mg/kg, i.p.), one hour later the second dose of LV (50 mg/kg; i.p.), then immediately given FU (100 mg/kg, i.p.) […]
The first day of treatment was defined as day 0. […] Animals were monitored for mortality, weight loss, and tumor size daily.

Series [2] is described as follows: Pharmacokinetics of gemcitabine (dFdC) and dFdU in plasma of PAN02 bearing BDF-1 mice. It counts as in vivo. The following applies: for AUC, dFdC + PHY906: PHY906 500 mg/kg 30 min before gemcitabine; for AUC, dFdC alone: gemcitabine 600 mg/kg. Here is the method: Plasma Handling: The mouse plasma was separated from the blood by centrifugation at 10,000 g at 4° C. for 10 min.
b) Gemcitabine-containing plasma: The plasma (50 μl) was extracted with 200 μl of acetonitrile (ACN) in the presence of 5 μl of 0.1 mM AZT as an internal standard. After centrifugation, the supernatant was dried by a Speedvac, reconstituted with 100 μl of solution containing 2.5% ACN and 97.5% of 15 mM ammonium acetate (pH 5.0).
The resultant analyte was then analyzed by HPLC with UV absorption and/or radioactivity.
To determine, for a future clinical trial, if PHY906 would change the metabolism of gemcitabine, a pharmacokinetics analysis in mice bearing pancreatic cancer was performed. Mice were divided into three sets of 15: gemcitabine only, gemcitabine plus PHY906, and vehicle control. Each mouse in the set was bled twice at two different time points. Plasma was processed as described in Materials and Methods and analyzed by HPLC with radioactivity confirmation of peak identity and quantitation.

Series [3] has as its system PAN02 murine pancreatic carcinoma. In words: Tumor growth in PAN02 murine pancreatic carcinoma model. The series is classed as in vivo, mouse. To be noted: C57/BL6 mice; 150 mg/kg. The protocol:
Tumor Cells: The human hepatocellular carcinoma HepG2, human PANC-1 pancreatic cancer and mouse Colon 38 colorectal cancer cell lines were purchased from the American Type Culture Collection (Rockville, Md.). […] Small chunk of mouse PAN02 tumor from NCI was suspended in PBS solution as a total volume of 0.8 ml. The cells were implanted into the left flank of mice. Tumor transplantation from mice to mice was performed when the tumor reached 1500-2000 mm^3. Mouse Tumor Model: Tumor cells (5×10^6 cells in 0.1 ml PBS) were transplanted subcutaneously into the left flank of mice. After 14 days, tumor ranging in size from 300-500 mm^3 was selected for drug studies. The length and width of the each tumor was measured with sliding calipers. The tumor size was estimated according to the following formula: Tumor size (mm^3)=length (mm)×width (mm)^2/2. Antitumor Activity of Chemotherapeutic Agents in the Presence or Absence of PHY906: […] The first day of drug treatment was defined as day 1. […] Chemotherapeutic agents were given either intraperitoneally or orally at the dose and schedule indicated. The tumor size, body weight, and mortality of the mice were monitored daily.

For another series, the system named is pancreatic cancer. The following applies: monotherapy; cited from earlier work.

Read-outs that look alike come from different tables or passages of the source.

With `CN(C)C(=O)C(CCN1CCC(O)(c2ccc(Cl)cc2)CC1)(c1ccccc1)c1ccccc1` [Loperamide], the “Protecting against body weight loss or enhancing the antitumor effects of CPT-11” value in series [1] (CPT-11 treated BDF-1 mice bearing Colon 38) is “completely ineffective”. In series [1] (CPT-11 treated mice, formulation 1 g/kg (dry weight incl. excipient), bid, 8 days), the “Protection from Body Weight Loss” value is “No Change”. Besides, the “Antitumor Effect” value with Colon 38 tumor is recorded as “No Change”.

For `Nc1ccn([C@@H]2O[C@H](CO)[C@@H](O)C2(F)F)c(=O)n1` [dFdC, 2′-deoxy-2′,2′-difluoro-cytidine], in series [2] (BDF-1, mouse, plasma, oral, 600 mg/kg, Radioactivity detection, read-out: Cmax, dFdC + PHY906), the peak concentration (Cmax) came to 400 µg/mL. Also, the Cmax in series [2] (BDF-1, mouse, plasma, oral, 600 mg/kg, Radioactivity detection, read-out: Cmax, dFdC alone) was 360 µg/mL. For the same compound, the Tmax in series [2] (BDF-1, mouse, plasma, oral, 600 mg/kg, Radioactivity detection, read-out: Tmax, dFdC alone (converted)) is 15 min. Besides, the half-life in series [2] (BDF-1, mouse, plasma, oral, 600 mg/kg, Radioactivity detection, read-out: T½, dFdC + PHY906) amounted to 34.2 min. The half-life in series [2] (BDF-1, mouse, plasma, oral, 600 mg/kg, Radioactivity detection, read-out: T½, dFdC alone) is 26.5 min. The Cmax in series [2] (BDF-1, mouse, plasma, oral, 600 mg/kg, UV detection, read-out: Cmax, dFdC alone) came out at 230 µg/mL. The half-life in series [2] (BDF-1, mouse, plasma, oral, 600 mg/kg, UV detection, read-out: T½, dFdC alone) was determined as 27 min. Moreover, in series [2] (Radioactivity detection), the “Tmax, dFdC + PHY906” value is 15 min; the “AUC, dFdC + PHY906” value was 25.0 mg·min/mL; the “AUC, dFdC alone” value is 15.6 mg·min/mL. Moreover, in series [2] (UV detection), the “Cmax, dFdC + PHY906” value turned out to be 250 µg/mL; the “Tmax, dFdC + PHY906” value worked out at 15 min; the “Tmax, dFdC alone” value was 15 min; the “T½, dFdC + PHY906” value is recorded as 31.0 min. In addition, in series [2] (UV detection), the “AUC, dFdC + PHY906” value was determined as 15.4 mg·min/mL and the “AUC, dFdC alone” value was determined as 10.8 mg·min/mL. In series [2] (plasma), the “Levels in circulation in the presence or absence of PHY906” value is given as “not a dramatic difference”. For the same compound, the “Antitumor activity, gemcitabine alone” value in series [3] is on record as “did not have antitumor activity”. For the same compound, in the series on pancreatic cancer, the Overall survival time is 4-6 months and the “Response rate in patients” value is 6-11%.

The Cmax is the maximum level reached in the sampled fluid or tissue. A word on the Tmax: it is the time at which the peak concentration occurs.
